We go through 25 compounds from US20250129078A1, “ERBB2 INHIBITORS” (Cogent Biosciences, Inc., priority 2023, published 2025).

In this test the target is EGFR WT (Homo sapiens (Human), UniProt P00533). The experiment in a line: ErbB enzyme assay (CisBio HTRF-KinEASE-TK), EGFR WT. The note with it: ATP at Km (25 μM), 1 h incubation. It counts as biochemical. Summed up:
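Tyrosine kinase HTRF, 1 h RT reaction → quench (Sa-XL665/TK-Ab-Cryptate) → 1 h RT → 655/620 ratio.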
Background: Time-resolved FRET reads energy transfer from a long-lived donor to a nearby acceptor.

EGFR WT, sequence (P00533 25-1210): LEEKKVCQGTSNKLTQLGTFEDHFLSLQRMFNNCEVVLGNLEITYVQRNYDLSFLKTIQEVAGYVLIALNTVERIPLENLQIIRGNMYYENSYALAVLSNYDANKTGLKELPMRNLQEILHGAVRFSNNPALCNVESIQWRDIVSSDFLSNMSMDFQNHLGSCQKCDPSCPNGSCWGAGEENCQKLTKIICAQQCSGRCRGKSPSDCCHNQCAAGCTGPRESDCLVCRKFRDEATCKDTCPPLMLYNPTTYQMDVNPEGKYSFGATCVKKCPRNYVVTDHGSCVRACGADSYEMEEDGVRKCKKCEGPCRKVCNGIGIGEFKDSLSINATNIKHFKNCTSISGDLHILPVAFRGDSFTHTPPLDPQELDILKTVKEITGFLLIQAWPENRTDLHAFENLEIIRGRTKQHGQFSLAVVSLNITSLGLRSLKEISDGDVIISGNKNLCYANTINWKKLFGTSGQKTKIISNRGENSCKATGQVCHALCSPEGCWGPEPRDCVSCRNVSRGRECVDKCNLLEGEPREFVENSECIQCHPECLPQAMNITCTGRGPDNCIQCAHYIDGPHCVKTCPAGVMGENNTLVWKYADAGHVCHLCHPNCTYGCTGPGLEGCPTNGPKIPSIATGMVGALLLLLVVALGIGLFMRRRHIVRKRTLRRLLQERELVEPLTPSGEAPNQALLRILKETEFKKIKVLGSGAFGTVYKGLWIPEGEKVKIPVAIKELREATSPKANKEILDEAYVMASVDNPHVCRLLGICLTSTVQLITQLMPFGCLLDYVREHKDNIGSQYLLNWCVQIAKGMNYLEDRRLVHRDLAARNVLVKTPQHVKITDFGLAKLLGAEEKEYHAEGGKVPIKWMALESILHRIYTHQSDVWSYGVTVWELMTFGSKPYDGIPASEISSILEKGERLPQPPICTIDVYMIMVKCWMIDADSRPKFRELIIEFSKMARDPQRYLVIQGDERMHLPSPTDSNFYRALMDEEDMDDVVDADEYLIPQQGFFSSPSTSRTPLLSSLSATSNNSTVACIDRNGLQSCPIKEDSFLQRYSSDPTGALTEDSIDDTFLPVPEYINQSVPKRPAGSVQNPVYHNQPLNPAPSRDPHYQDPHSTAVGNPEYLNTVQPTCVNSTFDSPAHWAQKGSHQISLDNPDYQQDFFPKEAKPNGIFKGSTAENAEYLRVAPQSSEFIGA

Compound `C=CC(=O)N1CCN(c2ncc3ncnc(Nc4ccc(Oc5ccc6c(c5)nnn6C)c(C)c4)c3n2)C[C@H]1CO` [Compound 24, (S)-1-(2-(hydroxymethyl)-4-(8-((3-methyl-4-((1-methyl-1H-benzo[d][1,2,3]triazol-5-yl)oxy)phenyl)amino)pyrimido[5,4-d]pyrimidin-2-yl)piperazin-1-yl)prop-2-en-1-one] displayed a half-inhibitory concentration (IC50) of 100 to 500 nM.
`C=C(F)C(=O)N1CCN(c2ncc3ncnc(Nc4ccc(Oc5ccc6c(c5)nnn6C)c(C)c4)c3n2)C[C@@H]1COC` [Compound 193, (R)-2-fluoro-1-(2-(methoxymethyl)-4-(8-((3-methyl-4-((1-methyl-1H-benzo[d][1,2,3]triazol-5-yl)oxy)phenyl)amino)pyrimido[5,4-d]pyrimidin-2-yl)piperazin-1-yl)prop-2-en-1-one] had an IC50 not below 1000 nM.
The value for `C=CC(=O)N1CCN(c2ncc3ncnc(Nc4ccc(Oc5ccc6c(c5)nnn6C)c(Cl)c4F)c3n2)CC1` [Compound 220, 1-(4-(8-((3-chloro-2-fluoro-4-((1-methyl-1H-benzo[d][1,2,3]triazol-5-yl)oxy)phenyl)amino)pyrimido[5,4-d]pyrimidin-2-yl)piperazin-1-yl)prop-2-en-1-one] was less than 50 nM; that for `C=CC(=O)N1CCN(c2nc3c(Nc4ccc(Oc5ccc6c(c5)nnn6C)c(C)c4)ncnc3cc2OC)CC1` [Compound 98, 1-(4-(7-methoxy-4-((3-methyl-4-((1-methyl-1H-benzo[d][1,2,3]triazol-5-yl)oxy)phenyl)amino)pyrido[3,2-d]pyrimidin-6-yl)piperazin-1-yl)prop-2-en-1-one] was less than 50 nM.
With `C=CC(=O)N[C@H]1CCN(c2ccc3ncnc(Nc4ccc(Oc5ccc6c(c5)nnn6C)c(C)c4F)c3n2)C[C@@H]1F` [Compound 280, N-((3S,4S)-3-fluoro-1-(4-((2-fluoro-3-methyl-4-((1-methyl-1H-benzo[d][1,2,3]triazol-5-yl)oxy)phenyl)amino)pyrido[3,2-d]pyrimidin-6-yl)piperidin-4-yl)acrylamide], the IC50 is 100 to 500 nM.
Next, `C=CC(=O)N[C@@H]1CCCN(c2ncc3ncnc(Nc4ccc(Oc5ccc6c(c5)nnn6C)c(C)c4)c3n2)C1` [Compound 125, (R)-N-(1-(8-((3-methyl-4-((1-methyl-1H-benzo[d][1,2,3]triazol-5-yl)oxy)phenyl)amino)pyrimido [5,4-d]pyrimidin-2-y1)piperidin-3-yl)acrylamide]: 100 to 500 nM.
In turn, `C=CC(=O)N1CC(N(C)c2ncc3ncnc(Nc4ccc(Oc5ccc6c(c5)nnn6C)c(C)c4F)c3n2)C1` [Compound 69, 1-(3-((8-((2-fluoro-3-methyl-4-((1-methyl-1H-benzo[d][1,2,3]triazol-5-yl)oxy)phenyl)amino)pyrimido[5,4-d]pyrimidin-2-yl)(methyl)amino)azetidin-1-yl)prop-2-en-1-one] returned an IC50 of less than 50 nM.
The value for `C=CC(=O)N[C@@H]1CCCN(c2ccc3ncnc(Nc4cc(C)c(Oc5ccc6c(c5)nnn6C)cc4OC(F)F)c3n2)C1` [Compound 269, (R)-N-(1-(4-((2-(difluoromethoxy)-5-methyl-4-((1-methyl-1H-benzo[d][1,2,3]triazol-5-yl)oxy)phenyl)amino)pyrido[3,2-d]pyrimidin-6-yl)piperidin-3-yl)acrylamide] was not below 1000 nM; that for `C=CC(=O)N[C@@H]1C[C@H](C)CN(c2ccc3ncnc(Nc4ccc(Oc5ccc6c(c5)nnn6C)c(C)c4F)c3n2)C1` (single isomer, unassigned) [Compound 336] was not below 1000 nM.
In turn, `C=CC(=O)N1CCC(Oc2ncc3ncnc(Nc4ccc(Oc5ccc6c(c5)ncn6C)c(OC)c4)c3n2)CC1` [Compound 379, 1-(4-((8-((3-methoxy-4-((1-methyl-1H-benzo[d]imidazol-5-yl)oxy)phenyl)amino)pyrimido[5,4-d]pyrimidin-2-yl)oxy)piperidin-1-yl)prop-2-en-1-one] returned a half-maximal inhibitory concentration (IC50) of 100 to 500 nM.
The value for `C=CC(=O)N(C)C1C2CN(c3ncc4ncnc(Nc5ccc(Oc6cc(F)c7c(c6)nnn7C)c(C)c5F)c4n3)CC21` (stereo not shown) [Compound 68, N-(3-(8-((2-fluoro-4-((7-fluoro-1-methyl-1H-benzo[d][1,2,3]triazol-5-yl)oxy)-3-methylphenyl)amino)pyrimido[5,4-d]pyrimidin-2-yl)-3-azabicyclo[3.1.0]hexan-6-yl)-N-methylacrylamide] was 50 to 100 nM; that for `C=CC(=O)N1CCN(c2ccc3ncnc(Nc4ccc(Oc5cc6nnn(C)c6cc5F)c(C)c4)c3n2)C[C@H]1C` [Compound 262, (R)-1-(4-(4-((4-((6-fluoro-1-methyl-1H-benzo[d][1,2,3]triazol-5-yl)oxy)-3-methylphenyl)amino)pyrido[3,2-d]pyrimidin-6-yl)-2-methylpiperazin-1-yl)prop-2-en-1-one] was 100 to 500 nM; that for `C=CC(=O)N1CCN(c2ncc3ncnc(Nc4ccc(Oc5cnc6c(c5)ncn6C)c(C)c4F)c3n2)CC1` [Compound 118, 1-(4-(8-((2-fluoro-3-methyl-4-((3-methyl-3H-imidazo[4,5-b]pyridin-6-yl)oxy)phenyl)amino)pyrimido [5,4-d]pyrimidin-2-y1)piperazin-1-yl)prop-2-en-1-one] was less than 50 nM.
As for `C=CC(=O)N1CCC(Oc2ncc3ncnc(Nc4ccc(Oc5ccc6c(c5)ncn6C)c(C)c4)c3n2)CC1` [Compound 378, 1-(4-((8-((3-methyl-4-((1-methyl-1H-benzo[d]imidazol-5-yl)oxy)phenyl)amino)pyrimido[5,4-d]pyrimidin-2-yl)oxy)piperidin-1-yl)prop-2-en-1-one], the IC50 fell in the range of 50 to 100 nM.
The value for `C=CC(=O)N[C@H]1CN(c2ccc3ncnc(Nc4ccc(Oc5ccc6c(c5)nnn6C)c(C)c4F)c3n2)C[C@H]1F` [Compound 301, N-((3S,4R)-4-fluoro-1-(4-((2-fluoro-3-methyl-4-((1-methyl-1H-benzo[d][1,2,3]triazol-5-yl)oxy)phenyl)amino)pyrido[3,2-d]pyrimidin-6-yl)pyrrolidin-3-yl)acrylamide] was 500 to 1000 nM; that for `C=CC(=O)N1CCN(c2ncc3ncnc(Nc4ccc(Oc5cc6nnn(C)c6cc5F)c(C)c4)c3n2)CC1` [Compound 190, 1-(4-(8-((4-((6-fluoro-1-methyl-1H-benzo[d][1,2,3]triazol-5-yl)oxy)-3-methylphenyl)amino)pyrimido[5,4-d]pyrimidin-2-yl)piperazin-1-yl)prop-2-en-1-one] was 100 to 500 nM; that for `C=CC(=O)N[C@H]1CCN(c2ncc3ncnc(Nc4ccc(Oc5ccc6c(c5)nnn6C)c(C)c4)c3n2)C1` [Compound 154, (S)-N-(1-(8-((3-methyl-4-((1-methyl-1H-benzo[d][1,2,3]triazol-5-yl)oxy)phenyl)amino)pyrimido [5,4-d]pyrimidin-2-yl)pyrrolidin-3-yl)acrylamide] was 100 to 500 nM.
Take `C=CC(=O)N[C@]1(C)CCN(c2ccc3ncnc(Nc4ccc(Oc5ccc6c(c5)nnn6C)c(C)c4)c3n2)C1` [Compound 263, (R)-N-(3-methyl-1-(4-((3-methyl-4-((1-methyl-1H-benzo[d][1,2,3]triazol-5-yl)oxy)phenyl)amino)pyrido[3,2-d]pyrimidin-6-yl)pyrrolidin-3-yl)acrylamide]: the half-maximal inhibitory concentration (IC50) was in the range of 100 to 500 nM.
Regarding `C=CC(=O)N[C@@H]1CCCN(c2ccc3ncnc(Nc4ccc(Oc5ccc6c(c5)nnn6C)c(C)c4F)c3n2)CC1` [Compound 283, (R)-N-(1-(4-((2-fluoro-3-methyl-4-((1-methyl-1H-benzo[d][1,2,3]triazol-5-yl)oxy)phenyl)amino)pyrido[3,2-d]pyrimidin-6-yl)azepan-4-yl)acrylamide], the half-maximal inhibitory concentration (IC50) is not below 1000 nM.
The value for `C=CC(=O)N1CCN(c2ncc3ncnc(Nc4cc(C)c(Oc5cc(F)c6c(c5)ncn6C)cc4OC)c3n2)CC1` [Compound 38, 1-(4-(8-((4-((7-fluoro-1-methyl-1H-benzo[d]imidazol-5-y1)oxy)-2-methoxy-5-methylphenyl)amino)pyrimido[5,4-d]pyrimidin-2-yl)piperazin-1-yl)prop-2-en-1-one 2,2,2-trifluoroacetate] was 100 to 500 nM; that for `C=CC(=O)N1CCN(c2ncc3ncnc(Nc4ccc(Oc5ccc6c(c5)nnn6C)c(C(F)(F)F)c4)c3n2)CC1` [Compound 43, 1-(4-(8-((4-((1-methyl-1H-benzo[d][1,2,3]triazol-5-yl)oxy)-3-(trifluoromethyl)phenyl)amino)pyrimido[5,4-d]pyrimidin-2-yl)piperazin-1-yl)prop-2-en-1-one] was 100 to 500 nM.
Next, `C=CC(=O)N1CCCN(c2ncc3ncnc(Nc4ccc(Oc5ccc6c(c5)nnn6C)c(C)c4)c3n2)C[C@@H]1C` [Compound 165, (S)-1-(2-methyl-4-(8-((3-methyl-4-((1-methyl-1H-benzo[d][1,2,3]triazol-5-yl)oxy)phenyl)amino)pyrimido[5,4-d]pyrimidin-2-y1)-1,4-diazepan-1-yl)prop-2-en-1-one]: not below 1000 nM.
For `C=CC(=O)N[C@@]1(C)CCN(c2ncc3ncnc(Nc4ccc(Oc5ccc6c(c5)nnn6C)c(C)c4)c3n2)C1` [Compound 145, (S)-N-(3-methyl-1-(8-((3-methyl-4-((1-methyl-1H-benzo[d][1,2,3]triazol-5-yl)oxy)phenyl)amino)pyrimido[5,4-d]pyrimidin-2-yl)pyrrolidin-3-yl)acrylamide], the IC50 lay in the range of 100 to 500 nM.
The value for `COC[C@@H]1CN(c2ccc3ncnc(Nc4ccc(Oc5ccc6c(c5)nnn6C)c(C)c4)c3n2)CCN1C(=O)/C=C/CF` [Compound 363, (S,E)-4-fluoro-1-(2-(methoxymethyl)-4-(4-((3-methyl-4-((1-methyl-1H-benzo[d][1,2,3]triazol-5-yl)oxy)phenyl)amino)pyrido[3,2-d]pyrimidin-6-yl)piperazin-1-yl)but-2-en-1-one] was 50 to 100 nM; that for `C=CC(=O)N1CC[C@@H](Oc2ncc3ncnc(Nc4ccc(Oc5cc(F)c6c(c5)ncn6C)c(C)c4)c3n2)C1` [Compound 385, (R)-1-(3-((8-((4-((7-fluoro-1-methyl-1H-benzo[d]imidazol-5-yl)oxy)-3-methylphenyl)amino)pyrimido[5,4-d]pyrimidin-2-yl)oxy)pyrrolidin-1-yl)prop-2-en-1-one] was 100 to 500 nM.

The IC50 is the concentration that gives 50% inhibition.
